{"source": "paper PMC7403827", "about": "(Clinical and Translational Medicine, 2020)", "key": {"[1]": {"tested_on": "EGFR‐mutant advanced non‐squamous NSCLC", "experiment": "Antitumor response (RECIST 1.1), PFS and OS", "details": "for median PFS: Kaplan‐Meier", "text": "Other endpoints included objective response rate (ORR) and disease control rate (DCR), progression‐free survival (PFS), and overall survival (OS). […] Combination therapy was continued until the status of progression disease, unbearable toxicity, withdrawal of informed consent form or discontinuation that was at the discretion of the principal investigator (see Supporting Information).\nAdverse events (AEs) in line with the version 4.0 of National Cancer Institute's Common Terminology Criteria for Adverse Events (CTCAE 4.0) were evaluated by the investigators. AEs were strictly recorded from the timepoint that ICF was obtained to 28 days after the finish of study. Imaging examinations was conducted before treatment, at the finish of the first follow‐up, and every other two follow‐ups afterward by taking the same examinations. Response of tumor was assessed based on the RECIST 1.1 guidelines. Primary assessment for antitumor response: (a) ORR, defining as the proportion of participants that achieved a complete response (CR) or a partial response (PR); (b) disease control rate (DCR), defining as the proportion of participants reached a status of CR or PR or stable disease (SD). After 4 weeks, best overall response (BOR) was confirmed.\nPatients in the ITT analysis who had complete safety records were pooled in the safety set (SS). The qualitative and quantitative data were summarized with the descriptive statistics. Efficacy was also assessed in the ITT analysis. The Kaplan‐Meier method described PFS and OS. Survival distribution differences were evaluated by the log‐rank test. […] Fisher's exact test compared the response rate in the various subgroups. Two‐sided tests were applied. […] All statistical analyses and graphs were made by the Statistical Package for Social Sciences (SPSS) 23.0 and GraphPad Prism 7."}, "[2]": {"tested_on": "CYP3A4", "set-up": "method as in PMID 28967981", "details": "cited from earlier work"}, "[3]": {"details": "previously reported, cited from earlier work"}, "[4]": {"details": "Apatinib Dose Cohort 250mg + gefitinib 250 mg, evaluable patients"}, "[5]": {"details": "Apatinib Dose Cohort 500mg + gefitinib 250 mg, evaluable patients"}, "[6]": {"details": "Total, both apatinib dose cohorts (n = 11)"}, "[7]": {"details": "Apatinib 250mg, ref [1] Yu M et al., Clinical Pharmacokinetics 2017"}, "[8]": {"details": "Apatinib 500mg, ref [2] Ding J et al., J Chromatogr B 2012"}}, "note": "Read-outs that look alike come from different tables or passages of the source.", "data": [{"smiles": "N#CC1(c2ccc(NC(=O)c3cccnc3NCc3ccncc3)cc2)CCCC1", "note": "[Apatinib]", "values": [{"measurement": "CR, patients", "setting": "[1]; [4]", "value": 0}, {"measurement": "Disease Control CR+PR+SD", "setting": "[1]; [4]", "value": "6 (100.0) n (%)"}, {"measurement": "Objective Response CR+PR", "setting": "[1]; [4]", "value": "5 (83.3) n (%)"}, {"measurement": "PD, patients", "setting": "[1]; [4]", "value": 0}, {"measurement": "PR, patients", "setting": "[1]; [4]", "value": 5}, {"measurement": "CR, patients", "setting": "[1]; [5]", "value": 0}, {"measurement": "Disease Control CR+PR+SD", "setting": "[1]; [5]", "value": "4 (80.0) n (%)"}, {"measurement": "Objective Response CR+PR", "setting": "[1]; [5]", "value": "4 (80.0) n (%)"}, {"measurement": "PD, patients", "setting": "[1]; [5]", "value": 1}, {"measurement": "PR, patients", "setting": "[1]; [5]", "value": 4}, {"measurement": "median PFS", "setting": "[1]; Cohort A (apatinib 500 mg + gefitinib 250 mg)", "value": 19.2, "unit": "months"}, {"measurement": "ORR", "setting": "[1]; Cohort A: apatinib 500 mg + gefitinib 250 mg (4/5)", "value": 80, "unit": "%"}, {"measurement": "median PFS", "setting": "[1]; Cohort B (apatinib 250 mg + gefitinib 250 mg)", "value": 13.4, "unit": "months"}, {"measurement": "ORR", "setting": "[1]; Cohort B: apatinib 250 mg + gefitinib 250 mg (5/6)", "value": 83.3, "unit": "%"}, {"measurement": "CR, patients", "setting": "[1]; [6]", "value": 0}, {"measurement": "Disease Control CR+PR+SD", "setting": "[1]; [6]", "value": "10 (90.9) n (%)"}, {"measurement": "Objective Response CR+PR", "setting": "[1]; [6]", "value": "9 (81.8) n (%)"}, {"measurement": "PD, patients", "setting": "[1]; [6]", "value": 1}, {"measurement": "PR, patients", "setting": "[1]; [6]", "value": 9}, {"measurement": "DCR", "setting": "[1]; apatinib 250 mg group + gefitinib 250 mg (6/6)", "value": 100, "unit": "%"}, {"measurement": "DCR", "setting": "[1]; apatinib 500 mg group + gefitinib 250 mg (4/5)", "value": 80.0, "unit": "%"}, {"measurement": "inhibitory effect on CYP3A4", "setting": "[2]", "value": "strong inhibitory effect"}, {"measurement": "AUC0-24", "setting": "[3]; [7]", "value": "3538 (1996-6025) ng·h/ml"}, {"measurement": "Cmax", "setting": "[3]; [7]", "value": "581 (321-1216) ng/ml"}, {"measurement": "AUC0-24", "setting": "[3]; [8]", "value": "11295 (70) ng·h/ml"}, {"measurement": "Cmax", "setting": "[3]; [8]", "value": "1521 (75) ng/ml"}, {"measurement": "Tmax", "setting": "[3]; [8]", "value": "3.5 (3-8) h"}]}]}
